Measurements from patent publication US5504097A, “N-hydroxyureas as 5-lipoxygenase inhibitors and inhibitors of oxidative modification of low density lipoprotein” (American Home Products Corporation, priority 1995, dated 1996).
pIC50: −log10 of the molar value.

Tests used:
[1] = target: T1, 5-Lipoxygenase (Homo sapiens, UniProt P09917); test: Inhibition of 5-Lipoxygenase in Human Whole Blood (LTB4, calcium ionophore A23187); format: cell-based
T1 construct: from tissue; host or cells: whole blood of male human donors (endogenous enzyme of the leukocytes)
T1 sequence (P09917 1-674): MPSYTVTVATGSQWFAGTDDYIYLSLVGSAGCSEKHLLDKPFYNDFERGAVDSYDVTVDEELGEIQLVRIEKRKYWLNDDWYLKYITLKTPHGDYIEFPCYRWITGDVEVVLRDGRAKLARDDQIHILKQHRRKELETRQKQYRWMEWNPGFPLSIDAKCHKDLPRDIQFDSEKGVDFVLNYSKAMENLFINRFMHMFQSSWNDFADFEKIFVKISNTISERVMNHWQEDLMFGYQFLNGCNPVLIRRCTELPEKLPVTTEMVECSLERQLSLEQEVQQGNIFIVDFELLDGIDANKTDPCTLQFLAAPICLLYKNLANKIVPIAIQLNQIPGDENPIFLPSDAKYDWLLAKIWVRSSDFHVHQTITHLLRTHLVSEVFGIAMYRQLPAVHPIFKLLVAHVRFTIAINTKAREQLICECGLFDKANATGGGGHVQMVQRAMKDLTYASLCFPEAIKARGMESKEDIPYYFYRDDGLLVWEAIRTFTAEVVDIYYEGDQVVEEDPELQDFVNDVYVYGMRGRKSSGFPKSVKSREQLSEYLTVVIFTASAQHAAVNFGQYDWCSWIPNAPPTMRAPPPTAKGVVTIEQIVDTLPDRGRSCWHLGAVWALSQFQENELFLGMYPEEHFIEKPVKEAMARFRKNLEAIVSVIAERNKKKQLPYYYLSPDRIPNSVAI
Experimental: 1. Inhibition of 5-Lipoxygenase in Human Whole Blood
Blood is obtained in 50-100 ml quantities from male donors. White blood cell counts and differentials are made. Two ml of blood are placed in a 15 ml polypropylene test tube. Test compounds are solubilized in dimethylsulfoxide and diluted in 1:10 in 10% bovine serum albumin in phosphate buffered saline, pH 7.4 resulting in a final dimethylsulfoxide concentration of 0.1% in the blood. Then, solutions of test compounds are added to the blood in a shaking water bath at 37° C. for 10 minutes prior to the addition of 30 μM calcium ionophore (A23187, Sigma). After ionophore administration, whole blood samples are mixed and incubated for 20 minutes at 37° C. in a shaking water bath. Incubation is terminated by placing samples in an ice bath and immediately adding ethylene glycol-bis-(β-aminoethyl ether)-N, N,N',N'-tetraacetic acid (10 mM). Samples are mixed and centrifuged at 1200× g for 15 minutes at 4° C. Preparation of samples for evaluation by RIA or ELISA is carried out by the following protocol. Plasma is removed from sample tubes, placed in 15 ml polypropylene test tubes containing 8 ml methanol, and then vortexed to precipitate protein. Samples are stored at -70° C. overnight. The next day, samples are centrifuged at 200× g for 15 minutes at 4° C. to pellet the precipitate. Samples are dried in a Savant SpeedVac Concentrator, Model SVC 200H, reconstituted to original volume with ice cold RIA or ELISA buffer, and stored at -70° C. until assayed. The assay for eicosanoids (LTB4, T×B2, and PGE2) is performed as described by the manufacturer of the ^3 H!-RIA kit or ELISA kit (LTB4 -Amersham, T×B2 and PGE2 -Caymen Chemical).
The total eicosanoid level in 2 ml of blood is calculated and reported as ng/10^6 neutrophils. Significance is determined by a one-way analysis of variance with least significant difference (LSD) comparisons to control (p≤0.05) and IC50 's (μM) are determined by regression analysis (Finney, 1978). Drug effects are expressed as percent change from control values.

[2] = test system: Low Density Lipoprotein; test: Inhibition of Copper Ion Mediated Oxidation of Low Density Lipoprotein; format: biochemical; conditions: Cu^+2 mediated oxidation of rabbit or monkey LDL
Experimental: 5. Inhibition of Copper Ion Mediated Oxidation of Low Density Lipoprotein
In this in vitro assay, the inhibition of Cu^+2 mediated oxidation of rabbit or monkey LDL by an invention compound is determined spectrophotometricallly. Oxidation of LDL results in the formation of LDL-diene which absorbs light at 532 nm. Inhibition of oxidation of LDL leads to a decrease in absorbance at 532 nm.
Rabbit or monkey LDL is prepared according to the procedures of Havel, Eder and Gragdon, "The Distribution and Chemical Composition of Ultracentrifugally Separated Lipoproteins in Human Serum,: J, Clin. Invest. 34, 1345-1353 (1955) and Parhtasarathy, Wieland and Steriberg, "A Role for Endothelial Cell Lipoxygenase in the Oxidative Modification of Low Density Lipoprotein," Proc, Natl. Acad. Sci. USA 86, 1046-1050 (1989). Test compound solutions are prepared by dissolving the invention compounds in ethanol at concentrations up to 248 μM. The medium used is Dulbecco's phosphate buffered saline containing 0.5 mg/ml bovine serum albumin. For standards, 0 to 10 μl of an aqueous solution of 1,1,3,3-tetraethoxypropane (1 μmol/ml H2 O) in 4.1 ml of medium is used.
Test compound solution (100 μl) is added to 4 ml of medium in incubation tubes. To each tube is added 10 μl of LDL solution and 25 μl of aqueous copper sulfate solution (1.32 mg/ml H2 O ). The tubes are incubated at 37° C. for 90 minutes and the oxidation reaction quenched by addition of 1 ml of thiobarbituric acid solution (0.67% in 50% acetic acid). The tubes are heated at 90° C. for 1 hour, then chilled in an ice bath and the chromophore extracted into 2 ml of n-butanol. Absorbence is read at 532 nm and the results are reported as nmols of malondialdehyde equivalents.
Significant differences (p<0.05) are determined by the Dunnett T-test or by the Student-Newman-Keuls Test for significant differences between means. The assay is conducted using several concentrations I! of the inhibitor test compounds. The LDL solution concentrations at different experiments were either 1.5 mg/ml, 2.5 mg/ml or 10.3 mg/ml. The IC50 is determined by non-linear regression, plotting log I! vs. % inhibition. (Reference: K. Yagi, Biochemical Medicine 15, 212-216 (1976)).

[3] = test system: Lipoxygenase; test: Ex-Vivo Measurement of Lipoxygenase Inhibition in Orally Dosed Rats (LTB4 in A23187-stimulated blood); set-up: species or system Male Sprague Dawley rats; conditions: 10 mg/kg, p.o.
Experimental: 2. Ex-Vivo Measurement of Lipoxygenase Inhibition in Orally Dosed Rats
After an interval of 3 or 6 hours, the rats were anesthetized with metofane (n=4/group) and blood collected in heparinized tubes. White blood cell counts and differentials were made. One ml of blood from each animal was placed in a 5 ml plastic tube in a shaker bath at 37° C. A23187 at a final concentration of 10 μM was added to the blood and the blood vortexed and incubated for 15 min at 37° C. with gentle shaking. Incubation was terminated by vortexing sample and centrifuging immediately at 1200× G for 15 min at 4° C. The plasma was transferred to 15 ml plastic tubes each containing 8 ml of methanol to precipitate protein followed by vortexing. The samples were stored at -70° C. overnight and the next day the samples were centrifuged at 800× G for 15 min to pellet the precipitate. The samples were dried in a Savant SpeedVac Concentrator Model SVC 200H and reconstituted to the original volume with cold RIA or ELISA buffer. The reconstituted samples were stored at -70° C. until assayed. The assay for LTB4 was performed according to the directions of the ^3 H!RIA kit or ELISA kit (Seragen). The total metabolite level in 1 ml of blood is calculated and reported as ng/10^6 neutrophils. Significance is determined by a one-way analysis of variance with LSD comparisons to control (p≤0.05).

[4] = test system: LTB4; test: Reverse Passive Arthus Reaction (pleurisy), LTB4 in pleural exudate; format: in vivo, male Lewis rats; conditions: 25 mg/kg, p.o.
Experimental: 3. Reverse Passive Arthus Reaction
A reverse passive Arthus reaction is induced in the pleural cavity of male Lewis rats (150-200 g; fasted overnight prior to use) by the intravenous administration of bovine serum albumin (BSA; 4 mg/0.2 ml) followed 30 minutes later by the injection of rabbit anti-BSA (1 mg/2.0 ml; lyophilized IgG fraction; Organon Teknika, West Chester, Pa.) into the right pleural space under halothane anesthesia. Drugs or vehicle (0.5% Tween-80) control are administered orally in a volume of 1 ml/100 g body weight at 1 hour prior to the anti-BSA. Animals are sacrificed at either the time of peak eicosanoid production (i.e. 5 minutes after anti-BSA for immunoreactive T×B2, 10 minutes for immunoreactive LTB4, 20 minutes for immunoreactive LTC4) or at the time of peak neutrophil infiltration (4 hours after anti-BSA) by CO2 inhalation. The pleural cavity is then exposed, the fluid exudate removed by gentle vacuum aspiration and the volume of exudate is recorded. For the determination of cellular infiltration, the pleural cavity is rinsed with 3 ml of 0.1% EDTA in sterile saline, and the recovered wash is pooled with the exudate. Cell number is determined on a model ZBI Coulter counter. For determination of eicosanoid production, undiluted pleural exudate is microfuged and the supernatant is extracted with ethanol (8-10 times volume). Extracts are either stored at -20° C., or are evaporated to dryness under a stream of N2 and reconstituted in radioimmunoassay (RIA) buffer.
Eicosanoids are quantitated by RIA according to the procedure specified by the RIA kit manufacturer (Advanced Magnetics, Cambridge, MA). Briefly, 100 μl of ^3 H-labeled eicosanoid and 100 μl of specific antibody are sequentially added to 100 μl of extracted pleural exudate in BGG-phosphate buffer which contains 0.01M phosphate, 0.1% bovine gamma globulin and 0.1% sodium azide at pH 7.0. Antibody-bound eicosanoid is separated from unbound eicosanoid by the addition of 750 μl of dextran (0.4%)-coated charcoal (Norit A) containing 0.1% sodium azide. The mixture is centrifuged at 2000 RPM at 5° C. for 15 minutes to pellet the charcoal and adsorbed unbound eicosanoid. Antibody-bound labeled eicosanoid is quantitated by counting in a liquid scintillation counter, and is correlated to concentration by a standard curve.

[5] = test system: atherosclerotic lesions; conditions: WHHL rabbits, in words; cited from earlier work
[6] = test system: LDL; conditions: in words; cited from earlier work
[7] = test system: LDL; conditions: in words; cited from earlier work; remark: listed apart in the source

Structure (SMILES) | inhibition at 1 µM [1] | pIC50 [2] | inhibition at 10 µM [1] | % Inhibition of LTB4 ([3]; pretreatment period 3 hr) | % Inhibition of LTB4 ([3]; pretreatment period 6 hr) | % Inhibition of LTB4 Synthesis [4] | further results
Cc1oc(-c2ccccc2)nc1COc1ccc(CN(O)C(N)=O)cc1Cl [Example 2, 1-3-Chloro-4-(5-methyl-2-phenyl-oxazol-4-ylmethoxy)-benzyl!-1-hydroxy-urea] | 31% | 6.25 | – | 68% | 72% | – | –
Cc1oc(-c2ccccc2)nc1COc1ccc(CN(O)C(N)=O)c(Cl)c1 [Example 3, 1-2-Chloro-4-(5-methyl-2-phenyl-oxazol-4-ylmethoxy)-benzyl!-1-hydroxy-urea] | – | – | 80% | 40% | – | 26% | –
CC(C)(Sc1cc(C(C)(C)C)c(O)c(C(C)(C)C)c1)Sc1cc(C(C)(C)C)c(O)c(C(C)(C)C)c1 [Probucol] | – | – | – | – | – | – | inhibition of formation of atherosclerotic lesions [5]: inhibit the formation of atherosclerotic lesions; inhibition of cell mediated oxidative modification of LDL [6]: inhibits; inhibition of Cu^+2 mediated oxidative modification of LDL [7]: inhibits

The next lines start with results.

inhibition at 1 µM [1] | pIC50 [2] | inhibition at 10 µM [1] | Structure (SMILES) | % Inhibition of LTB4 ([3]; pretreatment period 3 hr) | % Inhibition of LTB4 ([3]; pretreatment period 6 hr) | % Inhibition of LTB4 Synthesis [4] | further results
– | 6.09 | 81% | COc1cc(CN(O)C(N)=O)ccc1OCc1nc(-c2ccccc2)oc1C [Example 4, 1-Hydroxy-1-3-methoxy-4-(5-methyl-2-phenyl-oxazol-4-ylmethoxy)-benzyl!-urea] | – | – | – | –
47% | – | – | Cc1oc(-c2ccccc2)nc1COc1ccc(CN(O)C(N)=O)cc1F [Example 5, 1-3-Fluoro-4-(5-methyl-2-phenyl-oxazol-4-ylmethoxy)-benzyl!-1-hydroxy-urea] | 66% | 68% | 28% | –
71% | 5.96 | – | NC(=O)N(O)Cc1ccc(OCc2csc(-c3ccc(Cl)cc3)n2)cc1 [Example 14, 1-4-2-(4-chloro-phenyl)-thiazol-4-ylmethoxy!-benzyl!-1-hydroxy-urea] | – | – | – | –
